Earlier results, collected in patent US7615672B2, “Process for the preparation of n-heneicosane” (Defence Research & Development Organisation, priority 2005, dated 2009).

Test system: Aedes aegypti
Details: oviposition attractant pheromone

CCCCCCCCCCCCCCCCCCCCC [n-heneicosane]
concentration at which n-heneicosane attracts Aedes aegypti mosquitoes: less than 100 ppm
